Reference: US20160113932A1, “TREATMENT OF CANCERS USING PI3 KINASE ISOFORM MODULATORS” (INFINITY PHARMACEUTICALS, INC., priority 2013, published 2016)

What was measured:
PI3K δ = PI3K δ (Homo sapiens, UniProt O00329); assay: PI3K lipid kinase inhibition assay (TLC or HTRF), PI3K δ; assay type: biochemical; design: purchased Upstate; conditions: In Vitro
Excerpt: (§1) Other commercial kits or systems for assaying PI3K activities are available. […] An exemplary system is PI 3-Kinase (human) HTRF™ Assay from Upstate.

PI3K α = molecular target: T1, PI3K α (Homo sapiens, UniProt P42336); assay: PI3K lipid kinase inhibition assay (TLC or HTRF), PI3K α; assay type: biochemical; conditions: In Vitro
T1 construct: purchased Upstate
T1 sequence (P42336 whole entry): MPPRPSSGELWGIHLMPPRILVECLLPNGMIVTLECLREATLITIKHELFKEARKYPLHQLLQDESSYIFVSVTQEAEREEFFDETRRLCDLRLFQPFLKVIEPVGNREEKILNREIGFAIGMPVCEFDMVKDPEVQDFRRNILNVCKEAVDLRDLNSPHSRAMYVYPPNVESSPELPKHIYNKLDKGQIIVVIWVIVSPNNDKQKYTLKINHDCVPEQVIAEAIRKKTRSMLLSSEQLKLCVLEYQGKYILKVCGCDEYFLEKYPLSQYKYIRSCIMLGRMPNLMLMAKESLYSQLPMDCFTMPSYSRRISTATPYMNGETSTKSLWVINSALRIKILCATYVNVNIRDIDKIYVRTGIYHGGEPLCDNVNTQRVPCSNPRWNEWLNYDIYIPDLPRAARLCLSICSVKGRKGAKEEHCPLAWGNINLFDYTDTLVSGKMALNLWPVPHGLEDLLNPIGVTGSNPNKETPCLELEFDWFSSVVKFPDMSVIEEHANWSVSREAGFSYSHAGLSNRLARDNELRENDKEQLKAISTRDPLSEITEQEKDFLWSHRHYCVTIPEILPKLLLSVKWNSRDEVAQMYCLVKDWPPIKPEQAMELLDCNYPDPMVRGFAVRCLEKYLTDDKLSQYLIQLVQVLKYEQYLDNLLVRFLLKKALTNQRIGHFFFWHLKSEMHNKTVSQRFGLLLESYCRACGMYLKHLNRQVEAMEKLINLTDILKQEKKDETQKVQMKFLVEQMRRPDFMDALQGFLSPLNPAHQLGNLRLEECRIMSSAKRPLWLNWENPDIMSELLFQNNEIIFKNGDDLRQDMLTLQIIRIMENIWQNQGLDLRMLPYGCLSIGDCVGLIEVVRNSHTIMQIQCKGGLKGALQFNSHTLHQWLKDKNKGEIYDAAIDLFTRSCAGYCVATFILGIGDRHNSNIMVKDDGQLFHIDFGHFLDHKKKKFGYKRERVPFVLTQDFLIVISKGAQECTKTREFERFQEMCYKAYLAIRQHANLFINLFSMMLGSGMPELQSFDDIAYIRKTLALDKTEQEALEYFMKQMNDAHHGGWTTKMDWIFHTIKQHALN
T1 sequence (P27986 whole entry partner): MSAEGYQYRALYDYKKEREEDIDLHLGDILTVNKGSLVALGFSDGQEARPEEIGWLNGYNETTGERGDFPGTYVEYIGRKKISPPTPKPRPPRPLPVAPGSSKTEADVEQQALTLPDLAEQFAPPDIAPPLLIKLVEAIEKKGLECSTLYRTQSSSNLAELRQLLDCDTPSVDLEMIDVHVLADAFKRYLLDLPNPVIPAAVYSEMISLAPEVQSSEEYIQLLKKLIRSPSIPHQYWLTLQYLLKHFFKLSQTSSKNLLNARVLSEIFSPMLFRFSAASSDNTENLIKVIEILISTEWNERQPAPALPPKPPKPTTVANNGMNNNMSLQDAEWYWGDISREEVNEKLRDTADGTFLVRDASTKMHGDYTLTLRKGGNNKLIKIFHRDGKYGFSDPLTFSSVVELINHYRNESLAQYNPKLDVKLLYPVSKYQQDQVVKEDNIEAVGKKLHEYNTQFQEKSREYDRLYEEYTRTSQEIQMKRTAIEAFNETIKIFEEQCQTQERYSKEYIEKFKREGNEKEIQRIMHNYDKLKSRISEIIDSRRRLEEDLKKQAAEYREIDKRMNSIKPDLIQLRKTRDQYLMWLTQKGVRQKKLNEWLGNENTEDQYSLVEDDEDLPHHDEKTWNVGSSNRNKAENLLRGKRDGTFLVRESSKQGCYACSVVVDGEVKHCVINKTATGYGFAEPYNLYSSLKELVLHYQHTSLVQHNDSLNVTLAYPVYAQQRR
Excerpt: as §1

PI3K β = molecular target: T2, PI3K β (Homo sapiens, UniProt P42338); assay: PI3K lipid kinase inhibition assay (TLC or HTRF), PI3K β; assay type: biochemical; conditions: In Vitro
T2 construct: purchased Upstate
T2 sequence (P42338 whole entry): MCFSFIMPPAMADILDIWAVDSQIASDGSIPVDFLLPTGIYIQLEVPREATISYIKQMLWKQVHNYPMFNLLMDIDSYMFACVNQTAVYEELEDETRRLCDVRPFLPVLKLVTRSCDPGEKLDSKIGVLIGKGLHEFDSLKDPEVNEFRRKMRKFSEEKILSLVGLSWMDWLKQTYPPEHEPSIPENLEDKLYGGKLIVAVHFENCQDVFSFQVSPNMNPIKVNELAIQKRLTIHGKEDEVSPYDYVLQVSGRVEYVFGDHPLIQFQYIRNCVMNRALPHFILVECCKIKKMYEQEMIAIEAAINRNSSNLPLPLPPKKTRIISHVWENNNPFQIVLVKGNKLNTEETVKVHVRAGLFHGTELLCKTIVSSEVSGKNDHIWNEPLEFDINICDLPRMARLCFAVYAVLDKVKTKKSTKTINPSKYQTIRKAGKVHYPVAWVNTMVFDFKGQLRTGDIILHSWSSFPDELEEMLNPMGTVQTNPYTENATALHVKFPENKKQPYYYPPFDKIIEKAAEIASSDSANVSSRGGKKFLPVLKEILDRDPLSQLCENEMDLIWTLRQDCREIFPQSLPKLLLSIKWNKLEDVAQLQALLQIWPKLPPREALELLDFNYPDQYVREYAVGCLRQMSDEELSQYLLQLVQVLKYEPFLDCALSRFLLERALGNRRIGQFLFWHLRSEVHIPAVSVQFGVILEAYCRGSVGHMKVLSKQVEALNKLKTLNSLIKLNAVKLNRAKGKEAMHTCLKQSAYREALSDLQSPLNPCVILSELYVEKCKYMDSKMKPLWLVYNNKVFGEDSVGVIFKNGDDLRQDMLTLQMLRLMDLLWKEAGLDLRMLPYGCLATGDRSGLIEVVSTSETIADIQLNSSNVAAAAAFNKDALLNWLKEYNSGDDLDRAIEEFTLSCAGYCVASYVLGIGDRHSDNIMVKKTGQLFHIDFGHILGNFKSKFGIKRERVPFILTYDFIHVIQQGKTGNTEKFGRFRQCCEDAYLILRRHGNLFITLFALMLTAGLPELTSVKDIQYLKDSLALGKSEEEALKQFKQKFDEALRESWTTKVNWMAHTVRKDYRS
T2 sequence (P27986 whole entry partner): as the sequence (P27986 whole entry partner) above
Excerpt: as §1

PI3K γ = molecular target: T3, PI3K γ (Homo sapiens, UniProt P48736); assay: PI3K lipid kinase inhibition assay (TLC or HTRF), PI3K γ; assay type: biochemical; conditions: In Vitro
T3 construct: purchased Sigma
T3 sequence (P48736 whole entry): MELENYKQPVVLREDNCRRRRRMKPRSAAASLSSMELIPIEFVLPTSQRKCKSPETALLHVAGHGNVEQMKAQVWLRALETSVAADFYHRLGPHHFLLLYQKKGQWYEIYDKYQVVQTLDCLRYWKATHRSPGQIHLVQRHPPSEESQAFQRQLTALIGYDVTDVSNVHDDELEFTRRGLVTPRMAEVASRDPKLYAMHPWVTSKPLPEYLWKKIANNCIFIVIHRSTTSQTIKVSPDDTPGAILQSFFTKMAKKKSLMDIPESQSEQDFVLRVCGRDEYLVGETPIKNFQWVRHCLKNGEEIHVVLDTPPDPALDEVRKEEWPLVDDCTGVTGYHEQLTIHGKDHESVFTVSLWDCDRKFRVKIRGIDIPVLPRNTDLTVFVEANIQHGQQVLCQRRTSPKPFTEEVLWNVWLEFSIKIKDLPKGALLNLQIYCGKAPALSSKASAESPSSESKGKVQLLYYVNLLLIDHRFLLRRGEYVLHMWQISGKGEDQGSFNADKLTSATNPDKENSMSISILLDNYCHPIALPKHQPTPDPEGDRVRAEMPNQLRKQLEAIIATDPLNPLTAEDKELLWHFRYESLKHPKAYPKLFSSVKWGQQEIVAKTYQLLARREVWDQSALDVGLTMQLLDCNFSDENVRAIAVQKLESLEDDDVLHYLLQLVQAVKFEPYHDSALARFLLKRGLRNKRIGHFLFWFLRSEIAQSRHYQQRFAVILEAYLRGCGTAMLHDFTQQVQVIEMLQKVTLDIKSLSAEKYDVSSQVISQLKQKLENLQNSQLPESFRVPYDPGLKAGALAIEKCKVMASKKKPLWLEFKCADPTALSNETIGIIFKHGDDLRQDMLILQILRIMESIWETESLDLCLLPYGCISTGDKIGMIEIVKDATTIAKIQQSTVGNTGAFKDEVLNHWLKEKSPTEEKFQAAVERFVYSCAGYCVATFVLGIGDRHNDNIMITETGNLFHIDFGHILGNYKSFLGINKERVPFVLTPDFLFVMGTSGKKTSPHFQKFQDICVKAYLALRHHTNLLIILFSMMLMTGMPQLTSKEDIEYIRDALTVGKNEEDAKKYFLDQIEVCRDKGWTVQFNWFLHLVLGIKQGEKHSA
Excerpt: as §1

MJ = assay: CTCL cytotoxicity, 72 hours; assay type: cell-based; conditions: MJ cells
Experimental: MJ and HuT78 cells were grown in IMDM 20% FBS, and HH cells were grown in RPMI 10% FBS.

Loucy = assay: T-ALL growth inhibition; assay type: cell-based, human; conditions: Loucy ALL cells, various concentrations
Experimental: To further explore the individual contributions of the varying PI3K isoforms on T-ALL cell growth, Loucy ALL cells were treated with doxorubicin and various PI3K inhibitors as shown in FIG. 32 at various concentrations as denoted in the figure.

Sequence of PI3K δ (O00329 whole entry): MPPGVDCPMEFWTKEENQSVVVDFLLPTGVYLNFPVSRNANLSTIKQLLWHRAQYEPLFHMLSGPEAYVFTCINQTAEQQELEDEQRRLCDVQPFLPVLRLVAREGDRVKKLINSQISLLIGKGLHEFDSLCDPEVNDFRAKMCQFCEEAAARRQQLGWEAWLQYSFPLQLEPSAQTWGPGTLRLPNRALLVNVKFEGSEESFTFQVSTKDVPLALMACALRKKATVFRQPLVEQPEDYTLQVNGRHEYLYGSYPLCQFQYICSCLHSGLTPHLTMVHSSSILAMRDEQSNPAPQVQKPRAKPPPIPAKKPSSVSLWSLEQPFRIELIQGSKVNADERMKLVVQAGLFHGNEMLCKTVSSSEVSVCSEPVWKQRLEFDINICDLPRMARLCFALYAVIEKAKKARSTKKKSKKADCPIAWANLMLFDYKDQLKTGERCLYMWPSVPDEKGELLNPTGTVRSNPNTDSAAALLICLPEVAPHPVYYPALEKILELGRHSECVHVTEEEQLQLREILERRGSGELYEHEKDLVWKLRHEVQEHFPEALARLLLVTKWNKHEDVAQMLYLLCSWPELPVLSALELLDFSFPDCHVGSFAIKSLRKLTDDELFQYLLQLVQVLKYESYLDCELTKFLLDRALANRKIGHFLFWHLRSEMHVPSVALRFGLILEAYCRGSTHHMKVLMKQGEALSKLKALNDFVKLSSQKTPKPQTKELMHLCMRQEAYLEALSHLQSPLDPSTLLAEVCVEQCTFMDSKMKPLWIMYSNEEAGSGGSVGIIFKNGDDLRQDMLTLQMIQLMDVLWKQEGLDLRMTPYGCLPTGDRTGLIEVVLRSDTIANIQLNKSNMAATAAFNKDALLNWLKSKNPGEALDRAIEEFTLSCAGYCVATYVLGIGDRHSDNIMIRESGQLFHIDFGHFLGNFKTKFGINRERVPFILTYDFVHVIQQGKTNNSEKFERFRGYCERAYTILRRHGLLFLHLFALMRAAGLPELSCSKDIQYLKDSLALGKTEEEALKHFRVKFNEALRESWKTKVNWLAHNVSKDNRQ
Sequence of PI3K δ (P27986 whole entry partner): as the sequence (P27986 whole entry partner) above

Row | SMILES | IC50 (PI3K δ) [nM] | IC50 (PI3K α) [nM] | also measured
1 | Cc1cccc2cc(Cn3nc(-c4ccc(Cl)c(O)c4)c4c(N)ncnc43)n(C(C)C)c(=O)c12 [Compound 123] | < 100 | – | –
2 | Cc1cccc2cc(Cn3nc(I)c4c(N)ncnc43)n(C(C)C)c(=O)c12 [Compound 129] | < 10000 | – | –
3 | CC(=O)Nc1nc2ccc(-c3nn(Cc4cc5cccc(C)c5c(=O)n4-c4ccccc4C)c4ncnc(N)c34)cc2s1 [Compound 168] | – | < 10000 | –
4 | Cc1cccc2cc(Cn3nc(-c4ccc5nc(N)oc5c4)c4c(N)ncnc43)n(-c3ccccc3)c(=O)c12 [Compound 235] | – | < 10000 | IC50 (PI3K β): < 10000 nM; IC50 (PI3K γ): < 100 nM
5 | Cc1cccc2cc(C(C)Nc3nc(Cl)ncc3N)n(-c3ccccc3)c(=O)c12 (stereo not drawn) [Compound 322] | > 10000 | > 10000 | IC50 (PI3K β): > 10000 nM; IC50 (PI3K γ): > 10000 nM
6 | CC[C@H](Nc1ncnc2[nH]cnc12)c1nc2cccc(F)c2c(=O)n1-c1ccccc1 [GS-1101, (S)-2-(1-(9H-purin-6-ylamino)propyl)-5-fluoro-3-phenylquinazolin-4(3H)-one, reference compound] | – | – | cytotoxicity, sensitivity (MJ): resistant
7 | COc1cccc2c1C(=O)c1c(O)c3c(c(O)c1C2=O)C[C@@](O)(C(=O)CO)C[C@@H]3O[C@H]1C[C@H](N)[C@H](O)[C@H](C)O1 [doxorubicin, reference compound] | – | – | percent inhibition of Loucy cells with dose (Loucy): different pattern
